According to patent US9328369B2, “Process for production of useful substance, and surfactant for use in the process” (priority 2009, dated 2016):

How the values were obtained:
Escherichia coli(δ) [1] = experiment: Production by secretion in microbial culture system, cellulase expressing strain (Table 5); assay type: cell-based; set-up: key to Turbidity: (measured turbidity of diluted culture − blank) × dilution rate; conditions: for Dried cell density: obtained from turbidity; for Quantitative value of produced recombinant protein: SDS-PAGE
Experimental: A bglC gene of Bacillus licheniformis was amplified by the PCR method using primers 9 and 10 (Table 4). After being treated with restriction enzymes NcoI and BamHI, a PCR amplified fragment was bound to an NcoI restriction enzyme site and a BamHI restriction enzyme site of a pET-22b plasmid (product of Novagen). Then, the plasmid was transformed into a BL21 (DE3) Escherichia coli strain (product of Novagen) to form Escherichia coli […] that expresses cellulase.
Overnight cultures (1 ml) of Escherichia coli (δ) obtained in Production Example 4 and Escherichia coli (ε) obtained in Production Example 5 were respectively prepared as Comparative Example 2 and Comparative Example 4. An amount of 0.5 ml of each was inoculated in 5 ml of an LB culture solution (containing 100 mg/L of ampicillin) and was shake-cultured at 30° C. for 3 hours. In this manner, pre-culture solutions were prepared. The pre-culture solutions were each inoculated in 50 mL of a culture solution (1.2 g of yeast extract (Nihon Pharmaceutical Co., Ltd.), 0.6 g of polypeptone (Nihon Pharmaceutical Co., Ltd.), 0.47 g of dipotassium phosphate, 0.11 g of monopotassium phosphate, 0.35 g of ammonium sulfate, 0.66 g of disodium phosphate 12-hydrate, 0.02 g of sodium citrate dihydrate, 0.2 g of glycerol, 1.5 g of lactalbumin hydrolysate, 0.3 g of a defoaming agent (Shin-Etsu Chemical Co., Ltd., “KM-70”), 1 mM magnesium sulfate, trace metal solution (18.9 μg of calcium chloride, 500 μg of iron chloride (III), 9.0 μg of zinc sulfate heptahydrate, 5.1 μg of copper sulfate, 6.7 μg of manganese chloride tetrahydrate, 4.9 μg of cobalt chloride, 200 μg of ethylene-diamine-tetraacetic acid tetrasodium salt), 100 mg/L ampicillin). Culturing was initiated with use of a microbial culture system (ABLE Corporation, product name “BioJr. 8”), while the pH value and the temperature were maintained at 6.8 and 30° C. After the culturing was initiated, 0.15 mL of 1M IPTG was added. After 14 hours from the initiation of culturing, instillation of a glycerin/protein solution (50% of glycerin, 50 g/L of lactalbumin hydrolysate, a 33 g/L defoaming agent (Shin-Etsu Chemical Co., Ltd., “KM-70”), 100 mg/L ampicillin) was started. The culturing was terminated after 48 hours from the initiation and the culture solution was recovered. The whole protein in the culture solution was analyzed by SDS-PAGE. Based on the obtained amount of the protein band, the recombinant protein was quantified.
The dried cell density at the termination of the culturing was determined by the following processes (1) to (5):
The dried cell density was determined by applying the measuring results in the process (5) and the process (1) and the volume (L) of the culture solution used in the process (2) to the following formula: Dried cell density (g/L)=([measuring result in process (5)]−[measuring result in process (1)])/0.1.
Performance of this processes for several times clarified the proportional relationship between the turbidity of the culture solution and the dried cell density. Therefore, the dried cell density was obtained from the measured turbidity in each of Comparative Examples 2 to 4 and Examples 2 to 14.
The turbidity of a culture solution that is same as the culture solution used in the measurement of the dried cell density was measured using a turbidimeter (Shimadzu Corporation, UV-1700) and 1 ml of quarts cell.
For measurement, the culture solution was diluted in saline to have an appropriate absorbance. The absorbance of the same culture solution (but not containing bacteria) diluted at the same dilution as above was set as a blank. The turbidity of the culture solution was calculated by using the following formula: Turbidity of culture solution=[(measured turbidity of diluted culture solution)−(measured turbidity of blank)]×dilution rate.
The dried cell density and the turbidity of the culture solution were plotted to construct a graph in FIG. 3. […]

Escherichia coli(δ) [2] = experiment: as above; assay type: cell-based; conditions: SDS-PAGE
[3] = Comparative Example 3, surfactant 1 wt %, added earlier than in Example 2
[4] = Examples 2-11, surfactant 1 wt %, at termination of culturing
[5] = Examples 2-11, surfactant 1 wt %, culturing terminated after 48 hours
[6] = Examples 2-11, surfactant 1 wt %, supernatant of culture solution
[7] = Example 13, surfactant 0.1 wt %

| Compound | Turbidity (Escherichia coli(δ) [1]; [3]) | Dried cell density (Escherichia coli(δ) [1]; [3]) | Quantitative value of produced recombinant protein (Escherichia coli(δ) [1]; Comparative Example 3, surfactant 1 wt %, added earlier than in Example 2, whole protein in culture solution) | Dried cell density (Escherichia coli(δ) [1]; [4]) | Turbidity (Escherichia coli(δ) [1]; [5]) | Quantitative value of produced recombinant protein (Escherichia coli(δ) [1]; [6]) | Quantitative value of produced recombinant protein (Escherichia coli(δ) [2]; [6]) | Turbidity (Escherichia coli(δ) [1]; [7]) | Dried cell density (Escherichia coli(δ) [1]; [7]) | Turbidity (Escherichia coli(δ) [1]; Example 14, surfactant 5 wt %) | Dried cell density (Escherichia coli(δ) [1]; Example 14, surfactant 5 wt %) | Quantitative value of produced recombinant protein (Escherichia coli(δ) [2]; Example 13, surfactant 0.1 wt %, supernatant) | Quantitative value of produced recombinant protein (Escherichia coli(δ) [2]; Example 14, surfactant 5 wt %, supernatant) |
| --- | --- | --- | --- | --- | --- | --- | --- | --- | --- | --- | --- | --- | --- |
| CCCCCCCCCCCCCCCC[N+](C)(C)C.[Cl-] [A-14, Cetyl trimethyl ammonium chloride] | 1.07 | 0.3 g/L | <0.05 g/L | 1.52 g/L | 5.43 | 0.06 g/L |  |  |  |  |  |  |  |
| Polyoxyethylene(3 mol)tridecyl ether sodium acetate [A-1] |  |  |  | 12.1 g/L | 43.2 |  | 1.01 g/L |  |  |  |  |  |  |
| Cured palm oil fatty acid amidopropyl dimethyl aminoacetate betaine [A-6] |  |  |  | 19.7 g/L | 70.3 |  | 2.35 g/L | 75.2 | 21.1 g/L | 52.1 | 14.6 g/L | 1.82 g/L | 1.53 g/L |
| Sodium cocaminopropionate [A-7] |  |  |  | 22.1 g/L | 78.9 |  | 2.24 g/L |  |  |  |  |  |  |
